{"source": "paper PMC6462819", "about": "(Science immunology, 2018)", "target": "T1, recombinant GSDMD (human, full-length) (Homo sapiens, UniProt P57764)", "T1 sequence (P57764 1-484)": "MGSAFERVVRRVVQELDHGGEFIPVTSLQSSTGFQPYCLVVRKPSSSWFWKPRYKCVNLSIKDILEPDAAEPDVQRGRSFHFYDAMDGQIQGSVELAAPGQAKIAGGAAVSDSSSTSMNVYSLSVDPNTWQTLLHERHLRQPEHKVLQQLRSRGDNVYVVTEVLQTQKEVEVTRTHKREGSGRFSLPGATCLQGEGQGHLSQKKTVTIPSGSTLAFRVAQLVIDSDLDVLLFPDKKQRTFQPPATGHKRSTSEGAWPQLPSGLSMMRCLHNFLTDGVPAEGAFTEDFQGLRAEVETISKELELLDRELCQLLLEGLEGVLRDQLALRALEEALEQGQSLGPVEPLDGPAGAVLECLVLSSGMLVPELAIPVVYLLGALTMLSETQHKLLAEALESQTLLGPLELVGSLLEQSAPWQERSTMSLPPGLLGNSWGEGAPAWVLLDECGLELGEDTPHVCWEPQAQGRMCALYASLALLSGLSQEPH", "experiment": "surface plasmon resonance, Biacore T200", "type": "binding", "data": [{"smiles": "COc1nccnc1NS(=O)(=O)c1ccc(NC(=O)/C=C/c2ccc([N+](=O)[O-])s2)cc1", "note": "[necrosulfonamide]", "values": [{"measurement": "Kd", "result": "32 ± 3.8", "unit": "µM"}]}]}
